Values quoted from earlier work, collected in patent publication US20040204482A1, “Extended release oral dosage form” (priority 2001, published 2004).

Settings: in vivo

plasma elimination half-life, t1/2: 1.5 h
SMILES: NC(=O)c1ccc(F)c2c1C[C@@H](N(C1CCC1)C1CCC1)CO2.O.O=C(O)C(O)C(O)C(=O)O [(R)-3-N,N-dicyclobutylamino-8-fluoro-3,4-dihydro-2H-1-benzopyran-5-carboxamide hydrogen (2R,3R)-tartrate monohydrate]
